Measurements published in PubChem BioAssay (NCI).
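Five compound concentrations were applied to cells in 96-well plates for 48 hours; endpoints were derived by simple linear interpolation of the resulting dose-response curve. Definition used: TGI = concentration required for complete inhibition of growth.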

How the values were obtained:
Assay in all cases: inhibition of tumour cell growth, NCI panel, 48 h
XF 498 CNS = system: XF 498 CNS
DMS 114 small cell lung = system: DMS 114 small cell lung
KM20L2 colon = system: KM20L2 colon
DMS 273 small cell lung = system: DMS 273 small cell lung
SNB-78 CNS = system: SNB-78 CNS
M19-MEL melanoma = system: M19-MEL melanoma
RXF-631 renal = system: RXF-631 renal

| Structure (SMILES) | TGI (XF 498 CNS) | TGI (DMS 114 small cell lung) | TGI (KM20L2 colon) | TGI (DMS 273 small cell lung) | TGI (SNB-78 CNS) | TGI (M19-MEL melanoma) | TGI (RXF-631 renal) |
| --- | --- | --- | --- | --- | --- | --- | --- |
| CC(=O)OCC(=O)[C@@]1(O)CC[C@H]2[C@@H]3CCC4=CC(=O)[C@H](C)C[C@]4(C)[C@H]3[C@@H](O)C[C@@]21C | > 100 µM | > 100 µM | > 100 µM | > 100 µM | > 100 µM | > 100 µM | – |
| CC1CC2OC(=O)C3CC(O)CC(=C23)[C@@]12C[C@@H](c1ccoc1)OC2=O (stereo partly drawn) | > 100 µM | – | > 100 µM | > 100 µM | > 100 µM | > 100 µM | – |
| C/C(=N\N)C(CN(C)C)C(c1ccccc1)c1c(O)c2ccccc2oc1=O (stereo not drawn) | 99.8 µM | > 100 µM | > 100 µM | > 100 µM | > 100 µM | > 100 µM | > 100 µM |
| O=P(O)(OCC(O)O)OCC(O)O | > 100 µM | > 100 µM | > 100 µM | > 100 µM | > 100 µM | > 100 µM | > 100 µM |
| CCCCCCn1c(SCC)c2ccccc2c1-c1nc(F)nc(F)n1 | > 100 µM | > 100 µM | > 100 µM | > 100 µM | > 100 µM | > 100 µM | – |
| C/C(CN1C(=O)c2ccccc2C1=O)=N\NS(=O)(=O)c1ccc(Br)cc1 | – | 68.8 µM | > 100 µM | > 100 µM | > 100 µM | > 100 µM | – |
| Cn1c(O)c(C(=O)Nc2cccs2)c(=O)[nH]c1=S | – | 35.9 µM | 34.1 µM | – | 47.7 µM | 44.3 µM | – |
| NC(=S)NNC(=O)/C(=C/c1ccc(/C=C(\NC(=O)c2ccccc2)C(=O)NNC(N)=S)cc1)NC(=O)c1ccccc1 | > 100 µM | > 100 µM | > 100 µM | > 100 µM | > 100 µM | > 100 µM | – |
| COc1cc(/C=C/C(=O)c2sc(-n3nc(-c4ccccc4)cc3-c3ccccc3)nc2C)ccc1O | – | > 100 µM | > 100 µM | > 100 µM | > 100 µM | > 100 µM | > 100 µM |
| CC(C)=CCCC1(C)C=Cc2c(c(C)cc3c2[nH]c2cc(O)ccc23)O1 (stereo not drawn) | > 25 µM | > 25 µM | > 25 µM | > 25 µM | – | > 25 µM | – |
| O=S(=O)([O-])[O-].[Fe+2].c1ccc(/C(=N\Nc2ccccn2)c2ccccn2)cc1 | – | 3.73 µM | 12.4 µM | 11.5 µM | 12.1 µM | 4.25 µM | – |
| CCOC(C[C@H](O)[C@H]1COC(=S)S1)OCC | > 100 µM | > 100 µM | > 100 µM | > 100 µM | – | > 100 µM | – |
| Cc1c2ccncc2cc2c1sc1ccncc12 | 29.8 µM | 21.6 µM | 25.7 µM | 11.1 µM | 40.9 µM | 16.6 µM | > 40.9 µM |
| CC#COP(=O)(OCC)OCC | – | > 100 µM | > 100 µM | – | > 100 µM | > 100 µM | > 100 µM |
| NS(=O)(=O)c1cc2c(cc1Cl)NC(C(=O)c1cc(=O)c3ccc(O)cc3o1)=NS2(=O)=O | > 100 µM | > 100 µM | > 100 µM | > 100 µM | > 100 µM | > 100 µM | – |
| C=CCONC(=O)c1ccc(Cl)cc1 | > 100 µM | > 100 µM | > 100 µM | – | > 100 µM | > 100 µM | > 100 µM |
| COc1cc(/C=C\c2ccccn2)cc(OC)c1OC | > 100 µM | > 100 µM | > 100 µM | > 100 µM | > 100 µM | > 100 µM | > 100 µM |
| COc1ccc(Br)c2c1CC(C(=O)O)CC2 (stereo not drawn) | > 100 µM | > 100 µM | > 100 µM | > 100 µM | > 100 µM | – | – |
| COc1ccc(/C=C(\Cl)c2ccc(OC)c(OC)c2)cc1OC | – | > 100 µM | > 100 µM | > 100 µM | – | > 100 µM | – |
| NC(=O)OCC(COc1ccc(Cl)cc1)OC(=O)c1ccccc1Cl (stereo not drawn) | – | 28.1 µM | 34.9 µM | 36.4 µM | > 100 µM | – | 46 µM |
| c1ccc(Nc2nnc(CSc3nc(-c4ccccc4)c(-c4ccccc4)[nH]3)s2)cc1 | – | 81 µM | 48.5 µM | 43.4 µM | 79.9 µM | 28.6 µM | – |
| CCOC(=O)CSc1ccnc(=O)[nH]1 | > 100 µM | > 100 µM | > 100 µM | > 100 µM | > 100 µM | > 100 µM | – |
